The record followed here is patent US20250333709A1, “BRAIN ENDOTHELIAL CELLS AND METHODS OF MAKING” (President and Fellows of Harvard College, priority 2022, published 2025).

Like-named read-outs stand apart in the source and are kept apart here.

In assay [1] the test system is iPSC-ECs. Description: mRNA levels of brain EC genes in iPSC-ECs with HDAC inhibitor, Wnt pathway activator and PKC activator. In kind it is cell-based, human. The note with it: 48 hours, presence and absence of quisinostat 10 nM, Chir99021 5 uM, WNT3A 100 ng/ml, IndoV 100 nM, PMA 100 nM, FIG. 5C. The method, then:
FIGS. 5A-5C show overexpression of brain EC-specific transcription factors and inhibition of HDAC induce a subset of brain EC-enriched genes. […] Chir99021, 5 uM; WNT3A, 100 ng/ml; IndoV, 100 nM; PMA, 100 nM, Q, quisinostate 10 nM; 48 hours. *, P<0.05 vs. Control; **, P<0.01 vs. Control.

Assay [2] deals with iPSC-ECs. Description: GLUT1 and PLVAP expression in iPSC-ECs after Wnt signaling activation (immunostaining, mRNA). In kind it is cell-based, human. The note with it: vs. EGM2, FIG. 2A-2C. The text has this:
CTNNB1::GFP iPSC line (Allen Cell, AICS-0058-067iPSC) was used to visualize subcellular localization of beta-catenin protein. *, P<0.05 vs. EGM2; **, P<0.01 vs. EGM2. Scale bars, 100 um.

In assay [3] the test system is iPSC-ECs. The note with it: 10 uM for 2 days, FIG. 4A, 4C. The protocol:
Representative immunostaining images of iPSC-ECs after treatment with TGFBR1 inhibitor RepSox (10 uM, FIG. 4A) and human recombinant TGF beta (FIG. 4B). […] All compounds were treated at 10 uM concentrations for 2 days. […] Scale bars, 100 um.

For assay [4], the system named is iPSC-ECs. Put plainly: Brain EC gene regulation in iPSC-ECs exposed to a combination of WNT3A, CNTF and RepSox. Particulars: FIG. 4D. In kind it is cell-based, human.
The test system of assay [5] is iPSC-ECs. Put plainly: CLDN5 expression in CNTF-treated iPSC-ECs (immunostaining). In kind it is cell-based, human. Particulars: CNTF 20 ng/ml, CNTFRa 100 ng/ml, FIG. 3. The protocol: FIG. 3A illustrates iPSC-ECs exposed to either fresh astrocyte medium (AM) or astrocyte-conditioned medium (ACM). Conditioned medium was collected for 48 hours. Both AM and ACM were treated as 1:1 mixture with EC medium (EGM2). […] Human recombinant ciliary neurotrophic factor (CNTF), 20 ng/ml; human recombinant CNTF receptor alpha (CNTFRa), 100 ng/ml. […] PM and PCM were treated as 1:1 mixture with EGM2 for 2 days. […] Scale bars, 100 um.

Regarding `Cc1c[nH]c(-c2cnc(NCCNc3ccc(C#N)cn3)nc2-c2ccc(Cl)cc2Cl)n1` [Chir99021], in assay [1], the “expression of ABCB1 (mRNA)” value is on record as “induce” and the “expression of MFSD2A (mRNA)” value is “induce”. Moreover, in assay [2], the GLUT1 expression result is “upregulates” and the PLVAP expression result is given as “downregulates”.

For the molecule `CC(C)[C@H]1C(=O)N[C@H](CO)Cc2c[nH]c3cccc(c23)N1C` [IndoV], in assay [1], the “expression of ABCB1 (mRNA)” value is on record as “induce” and the “expression of MFSD2A (mRNA)” value is on record as “induce”.

As to `CCCCCCCCCCCCCC(=O)O[C@@H]1[C@@H](C)[C@@]2(O)[C@@H](C=C(CO)C[C@]3(O)C(=O)C(C)=C[C@@H]23)[C@@H]2C(C)(C)[C@]12OC(C)=O` [PMA], in assay [1], the “expression of ABCB1 (mRNA)” value is reported as “induce” and the “expression of MFSD2A (mRNA)” value is “induce”.

Regarding `Cc1cccc(-c2[nH]ncc2-c2ccc3ncccc3n2)n1` [RepSox], the CLDN5 expression entry in assay [3] is “increase”. Moreover, the “effect on brain EC gene regulation” value in assay [4] is recorded as “additive effect”.

B1: ciliary neurotrophic factor (protein, UniProt P26441 1-200, looked up)
Ciliary neurotrophic factor: MAFTEHSPLTPHRRDLCSRSIWLARKIRSDLTALTESYVKHQGLNKNINLDSADGMPVASTDQWSELTEAERLQENLQAYRTFHVLLARLLEDQQVHFTPTEGDFHQAIHTLLLQVAAFAYQIEELMILLEYKIPRNEADGMPINVGDGGLFEKKLWGLKVLQELSQWTVRSIHDLRFISSHQTGIPARGSHYIANNKKM
notes: Human recombinant ciliary neurotrophic factor, 20 ng/ml
Take B1: the CLDN5 expression entry in assay [5] is given as “increases”. Also, in assay [4], the “effect on brain EC gene regulation” value is “additive effect”.

B2: WNT3A: Wnt ligand used at 100 ng/ml to activate Wnt signaling in iPSC-ECs (protein, UniProt P56704 19-352, looked up)
Protein Wnt-3a: SYPIWWSLAVGPQYSSLGSQPILCASIPGLVPKQLRFCRNYVEIMPSVAEGIKIGIQECQHQFRGRRWNCTTVHDSLAIFGPVLDKATRESAFVHAIASAGVAFAVTRSCAEGTAAICGCSSRHQGSPGKGWKWGGCSEDIEFGGMVSREFADARENRPDARSAMNRHNNEAGRQAIASHMHLKCKCHGLSGSCEVKTCWWSQPDFRAIGDFLKDKYDSASEMVVEKHRESRGWVETLRPRYTYFKVPTERDLVYYEASPNFCEPNPETGSFGTRDRTCNVSSHGIDGCDLLCCGRGHNARAERRREKCRCVFHWCCYVSCQECTRVYDVHTCK
Take B2: in assay [1], the “expression of ABCB1 (mRNA)” value was “induce” and the “expression of MFSD2A (mRNA)” value is “induce”. Besides, the “effect on brain EC gene regulation” value in assay [4] is listed as “additive effect”. In assay [2], the GLUT1 expression result is “upregulates” and the PLVAP expression entry was “downregulates”.
